Laboratory results taken from PubChem BioAssay (NCI).
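Dose response: 5 concentrations. Exposure: 48 h. Format: 96-well plates. Endpoint: linear interpolation; highest concentration if not reached. GI50 marks 50% less growth. TGI marks complete inhibition of growth.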

Key:
Assay in all cases: NCI anticancer screen, dose series, 48 h
786-0 renal = test system: 786-0 renal
A498 renal = test system: A498 renal
A549 NSCLC = test system: A549 NSCLC
ACHN renal = test system: ACHN renal
CAKI-1 renal = test system: CAKI-1 renal
CCRF-CEM leukemia = test system: CCRF-CEM leukemia
COLO 205 colon = test system: COLO 205 colon
DU-145 prostate = test system: DU-145 prostate
EKVX NSCLC = test system: EKVX NSCLC
HCC-2998 colon = test system: HCC-2998 colon
HCT-116 colon = test system: HCT-116 colon
HCT-15 colon = test system: HCT-15 colon
HL-60(TB) leukemia = test system: HL-60(TB) leukemia
HOP-62 NSCLC = test system: HOP-62 NSCLC
HS 578T breast = test system: HS 578T breast
HT29 colon = test system: HT29 colon
IGROV1 ovarian = test system: IGROV1 ovarian
K-562 leukemia = test system: K-562 leukemia
KM12 colon = test system: KM12 colon
LOX IMVI melanoma = test system: LOX IMVI melanoma
M14 melanoma = test system: M14 melanoma
MALME-3M melanoma = test system: MALME-3M melanoma
MCF7 breast = test system: MCF7 breast
MDA-MB-231 breast = test system: MDA-MB-231 breast
MDA-MB-435 = test system: MDA-MB-435
MOLT-4 leukemia = test system: MOLT-4 leukemia
NCI-H226 lung = test system: NCI-H226 lung
NCI-H23 lung = test system: NCI-H23 lung

Work on O=C(N/N=C/c1ccc([N+](=O)[O-])cc1)c1ccccc1Nc1ccnc(C(F)(F)F)c1 yielded a GI50 (786-0 renal) of 32.7 µM, a TGI (786-0 renal) greater than 100 µM and a GI50 (A498 renal) of 10.5 µM. The TGI (A498 renal) was 43.7 µM, the GI50 (A549 NSCLC) was 15.4 µM and the TGI (A549 NSCLC) was 66 µM. For the same molecule, the GI50 (ACHN renal) was 7.89 µM, the TGI (ACHN renal) was 73 µM and the GI50 (CAKI-1 renal) was 13.5 µM. The TGI (CAKI-1 renal) was 36.4 µM, the GI50 (CCRF-CEM leukemia) was greater than 100 µM and the TGI (CCRF-CEM leukemia) was greater than 100 µM. The GI50 (COLO 205 colon) was 18.2 µM, the TGI (COLO 205 colon) was 39.8 µM and the GI50 (DU-145 prostate) was 11.9 µM. It also gave a TGI (DU-145 prostate) of 45.5 µM, a GI50 (EKVX NSCLC) of 14.6 µM and a TGI (EKVX NSCLC) of 59.5 µM. The GI50 (HCC-2998 colon) was 17.9 µM, the TGI (HCC-2998 colon) was 49.5 µM and the GI50 (HCT-116 colon) was 20 µM. For the same molecule, the TGI (HCT-116 colon) was 70.2 µM, the GI50 (HCT-15 colon) was 3.8 µM and the TGI (HCT-15 colon) was greater than 100 µM. For the same molecule, the GI50 (HL-60(TB) leukemia) was 14.2 µM, the TGI (HL-60(TB) leukemia) was 47.3 µM and the GI50 (HOP-62 NSCLC) was 31.2 µM. For the same molecule, the TGI (HOP-62 NSCLC) was 95.1 µM, the GI50 (HS 578T breast) was 2260 nM and the TGI (HS 578T breast) was 49.8 µM. For the same molecule, the GI50 (HT29 colon) was 30.7 µM, the TGI (HT29 colon) was greater than 100 µM and the GI50 (IGROV1 ovarian) was 6.25 µM. It also gave a TGI (IGROV1 ovarian) of 19.2 µM, a GI50 (K-562 leukemia) of 11 µM and a TGI (K-562 leukemia) greater than 100 µM. The GI50 (KM12 colon) was 2750 nM, the TGI (KM12 colon) was 55.4 µM and the GI50 (LOX IMVI melanoma) was 19.8 µM. For the same molecule, the TGI (LOX IMVI melanoma) was greater than 100 µM, the GI50 (M14 melanoma) was 19.2 µM and the TGI (M14 melanoma) was 58.7 µM. It also gave a GI50 (MALME-3M melanoma) of 10.7 µM, a TGI (MALME-3M melanoma) of 33.6 µM and a GI50 (MCF7 breast) of 19.9 µM. It also gave a TGI (MCF7 breast) of 45.6 µM, a GI50 (MDA-MB-231 breast) of 21.7 µM and a TGI (MDA-MB-231 breast) of 77.1 µM. For the same molecule, the GI50 (MDA-MB-435) was 14.7 µM, the TGI (MDA-MB-435) was 35.1 µM and the GI50 (MOLT-4 leukemia) was 5.33 µM. The TGI (MOLT-4 leukemia) was 40.5 µM, the GI50 (NCI-H226 lung) was 15.5 µM and the TGI (NCI-H226 lung) was 74.3 µM. It also gave a GI50 (NCI-H23 lung) of 9.47 µM.
